Results from ChEMBL document CHEMBL1201862, “PubChem BioAssay data set” (2004).
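48-hour exposure; five concentrations; linearly interpolated endpoints. GI50: concentration for 50% inhibition of growth.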 The source made the active and inactive calls. Rule as the data show it: active = GI50 up to about 1.1 µM and inactive = higher.

What was measured:
Assay in all cases: growth of human tumour cells (NCI), 48 h
HOP-62 = test system: HOP-62
BT-549 = test system: BT-549
K562 = test system: K562
UO-31 = test system: UO-31
HT-29 = test system: HT-29
ACHN = test system: ACHN
MOLT-4 = test system: MOLT-4
HOP-92 = test system: HOP-92
KM12 = test system: KM12
HCC 2998 = test system: HCC 2998
SW-620 = test system: SW-620
HCT-15 = test system: HCT-15
TK-10 = test system: TK-10
SN12C = test system: SN12C
NCI-H460 = test system: NCI-H460
SK-MEL-28 = test system: SK-MEL-28
SK-MEL-5 = test system: SK-MEL-5
OVCAR-8 = test system: OVCAR-8
SNB-75 = test system: SNB-75
PC-3 = test system: PC-3
SNB-19 = test system: SNB-19
DU-145 = test system: DU-145
RXF 393 = test system: RXF 393
A498 = test system: A498
HCT-116 = test system: HCT-116
OVCAR-5 = test system: OVCAR-5
A549 = test system: A549
LOX IMVI = test system: LOX IMVI
SF-295 = test system: SF-295
U-251 = test system: U-251
MDA-MB-435 = test system: MDA-MB-435
MCF7 = test system: MCF7
RPMI-8226 = test system: RPMI-8226
Hs-578T = test system: Hs-578T
SK-OV-3 = test system: SK-OV-3
EKVX = test system: EKVX
NCI/ADR-RES = test system: NCI/ADR-RES
CCRF-CEM = test system: CCRF-CEM
CAKI-1 = test system: CAKI-1
M14 = test system: M14
IGROV-1 = test system: IGROV-1
MDA-N = test system: MDA-N
Malme-3M = test system: Malme-3M
SF-268 = test system: SF-268
HL-60 = test system: HL-60
UACC-257 = test system: UACC-257
NCI-H226 = test system: NCI-H226
UACC-62 = test system: UACC-62
MDA-MB-231 = test system: MDA-MB-231
T47D = test system: T47D
COLO 205 = test system: COLO 205
SK-MEL-2 = test system: SK-MEL-2
SR = test system: SR
OVCAR-3 = test system: OVCAR-3
786-0 = test system: 786-0
NCI-H23 = test system: NCI-H23
SF-539 = test system: SF-539
OVCAR-4 = test system: OVCAR-4
NCI-H522 = test system: NCI-H522

CCC(O)CC1OC2(CCC1C)CC1OC(=O)/C=C\C(C)(O)C(O)C(C)C(O)C(OC3CC(OC)C(O)C(C)O3)C(O)C(C)(O)CCC/C=C/C3CC(C)COC3(O)CC(O2)C1C (configuration not stated)
GI50 (HOP-62): 2.93 µM (inactive)
GI50 (BT-549): 3.66 µM (inactive)
GI50 (K562): < 0.01 µM (active)
GI50 (UO-31): 11.2 µM (inactive)
GI50 (HT-29): 12 µM (inactive)
GI50 (ACHN): 7.24 µM (inactive)
GI50 (MOLT-4): 0.335 µM (active)
GI50 (HOP-92): 25.6 µM (inactive)
GI50 (KM12): 2.43 µM (inactive)
GI50 (HCC 2998): 15.7 µM (inactive)
GI50 (SW-620): 14.8 µM (inactive)
GI50 (HCT-15): 9.62 µM
GI50 (TK-10): 1.6 µM (inactive)
GI50 (SN12C): 15.7 µM (inactive)
GI50 (NCI-H460): 6.62 µM (inactive)
GI50 (SK-MEL-28): 13.8 µM (inactive)
GI50 (SK-MEL-5): < 0.01 µM (active)
GI50 (OVCAR-8): < 0.0111 µM (active)
GI50 (SNB-75): 2.37 µM (inactive)
GI50 (PC-3): < 0.0251 µM (active)
GI50 (SNB-19): 0.0743 µM (active)
GI50 (DU-145): 2.67 µM (inactive)
GI50 (RXF 393): 26.2 µM (inactive)
GI50 (A498): 3.82 µM (inactive)
GI50 (HCT-116): 5.08 µM (inactive)
GI50 (OVCAR-5): 6.18 µM (inactive)
GI50 (A549): < 0.0214 µM (active)
GI50 (LOX IMVI): 11.8 µM (inactive)
GI50 (SF-295): < 16 nM (active)
GI50 (U-251): < 0.01 µM (active)
GI50 (MDA-MB-435): 1.91 µM (inactive)
GI50 (MCF7): < 0.01 µM (active)
GI50 (RPMI-8226): < 0.01 µM (active)
GI50 (Hs-578T): 12.1 µM (inactive)
GI50 (SK-OV-3): 26.6 µM (inactive)
GI50 (EKVX): < 0.01 µM (active)
GI50 (NCI/ADR-RES): 1.67 µM (inactive)
GI50 (CCRF-CEM): 0.23 µM (active)
GI50 (CAKI-1): 1.24 µM (inactive)
GI50 (M14): 6.97 µM (inactive)
GI50 (IGROV-1): 18.3 µM (inactive)
GI50 (MDA-N): 2.05 µM (inactive)
GI50 (Malme-3M): 10.7 µM (inactive)
GI50 (SF-268): 17.8 µM (inactive)
GI50 (HL-60): < 0.0199 µM (active)
GI50 (UACC-257): < 0.01 µM (active)
GI50 (NCI-H226): 0.0904 µM (active)
GI50 (UACC-62): 9.04 µM (inactive)
GI50 (MDA-MB-231): 12 µM (inactive)
GI50 (T47D): < 0.0107 µM (active)
GI50 (COLO 205): 0.237 µM (active)
GI50 (SK-MEL-2): 4.98 µM (inactive)
GI50 (SR): 19.9 µM (inactive)
GI50 (OVCAR-3): 0.585 µM (active)
GI50 (786-0): 20.2 µM (inactive)
GI50 (NCI-H23): < 0.0176 µM (active)
GI50 (SF-539): 17.3 µM (inactive)

COC(=O)/N=[N+](\[O-])C(c1ccc(Cl)cc1)c1ccc(Cl)cc1
GI50 (BT-549): 53.8 µM (inactive)
GI50 (K562): 49.1 µM (inactive)
GI50 (UO-31): 15.5 µM (inactive)
GI50 (HT-29): 51.6 µM (inactive)
GI50 (MOLT-4): 39.7 µM (inactive)
GI50 (KM12): 32.2 µM (inactive)
GI50 (HCC 2998): 32 µM (inactive)
GI50 (SW-620): 48.6 µM (inactive)
GI50 (HCT-15): 30.8 µM
GI50 (TK-10): 36.1 µM (inactive)
GI50 (SN12C): 56.1 µM (inactive)
GI50 (NCI-H460): 38.9 µM (inactive)
GI50 (SK-MEL-28): 50.4 µM (inactive)
GI50 (SK-MEL-5): 24.7 µM (inactive)
GI50 (OVCAR-8): 36.3 µM (inactive)
GI50 (SNB-75): 27.9 µM (inactive)
GI50 (PC-3): 27.2 µM (inactive)
GI50 (SNB-19): 50.4 µM (inactive)
GI50 (DU-145): 29.1 µM (inactive)
GI50 (RXF 393): 27.2 µM (inactive)
GI50 (A498): 31.8 µM (inactive)
GI50 (HCT-116): 23.8 µM (inactive)
GI50 (OVCAR-5): 80.9 µM (inactive)
GI50 (A549): 40.1 µM (inactive)
GI50 (LOX IMVI): 15.7 µM (inactive)
GI50 (U-251): 39.2 µM (inactive)
GI50 (MDA-MB-435): 38.1 µM (inactive)
GI50 (MCF7): 33.9 µM (inactive)
GI50 (RPMI-8226): 21.9 µM (inactive)
GI50 (Hs-578T): 36.4 µM (inactive)
GI50 (SK-OV-3): 83.6 µM (inactive)
GI50 (EKVX): 25.2 µM (inactive)
GI50 (OVCAR-4): 42.6 µM (inactive)
GI50 (NCI/ADR-RES): 38.2 µM (inactive)
GI50 (CCRF-CEM): 28.4 µM (inactive)
GI50 (CAKI-1): 10.1 µM (inactive)
GI50 (M14): 31.3 µM (inactive)
GI50 (IGROV-1): 40.1 µM (inactive)
GI50 (MDA-N): 47.5 µM (inactive)
GI50 (Malme-3M): 51.9 µM (inactive)
GI50 (SF-268): 69.5 µM (inactive)
GI50 (HL-60): 20.7 µM (inactive)
GI50 (UACC-257): 34.6 µM (inactive)
GI50 (NCI-H226): 21.9 µM (inactive)
GI50 (UACC-62): 36.4 µM (inactive)
GI50 (MDA-MB-231): 1.75 µM (inactive)
GI50 (T47D): 20.8 µM (inactive)
GI50 (COLO 205): 23.9 µM (inactive)
GI50 (NCI-H522): 32.6 µM (inactive)
GI50 (SK-MEL-2): 34.1 µM (inactive)
GI50 (SR): 42 µM (inactive)
GI50 (OVCAR-3): 57.7 µM (inactive)
GI50 (786-0): 27.1 µM (inactive)
GI50 (NCI-H23): 32 µM (inactive)
GI50 (SF-539): 65.3 µM (inactive)
